“And” between values parts separate entries of the source, which are not always exact repeats. Equal values may be shown once.
Columns and labels:
[1] = Plasma pharmacokinetics after intravenous administration; conditions: rats; for Tmax: i.v. NPPA-PTX NPs 6.04 mg kg^−1 (equimolar with 5.00 mg kg^−1 PTX) or Taxol 5.00 mg kg^−1; for Tmax / AUCINF_obs / AUClast / Cmax: plasma
Experimental: Post injection, ∼200 μL blood samples were drawn from the jugular vein at predetermined time points of 0.033, 0.083, 0.25, 0.5, 1, 2, 4, 6, 8, 12, and 24 h post-injection and centrifuged immediately at 3000 rpm for 10 min at 4 °C. […] 200 μL of deionized water was added into the 40 μL supernatants followed by vortexing for 1 min. Finally, the pharmacokinetic data analysis was performed via a liquid chromatography-tandem mass spectrometry (LC-MS/MS Applied Biosystems. Foster City, CA, USA) and pharmacokinetic parameters were acquired by Winnolin 7.0 software.

[2] = Tissue distribution in MDA-MB-231 tumor-bearing nude mice
Experimental: Mice were sacrificed and the tumors and main organs were harvested at 1, 4, 8, and 24 h after administration. Each tissue sample was homogenized in 1 mL acetonitrile and centrifugated.

HCT116 cells = test: cells; conditions: Homo sapiens, HCT-116
Experimental: (§1) Dose-effect curves were constructed and IC50 values were calculated by GraphPad Prism6/SPSS Software.

MDA-MB-231 cells = test: cells; conditions: Homo sapiens
Experimental: as §1

[3] = i.v. NPPA-PTX NPs 6.04 mg kg^−1 or Taxol 5.00 mg kg^−1, mean ± SEM, n = 3

SMILES	Tmax ([1]; mean ± SEM, n = 3) [min]	Cl_obs [1, 3] [mL/min/kg]	HL_Lambda_z [1, 3] [h]	MRTlast [1, 3] [h]	Vz_obs (apparent distribution volume) [1, 3]	AUCINF_obs [1, 3] [ng·h/mL]	AUClast [1, 3] [ng·h/mL]	Cmax [1, 3] [ng/mL]	other results
CC(=O)OC1C(=O)C2(C)C(O)CC3OCC3(OC(C)=O)C2C(OC(=O)c2ccccc2)C2(O)CC(OC(=O)C(O)C(NC(=O)c3ccccc3)c3ccccc3)C(C)=C1C2(C)C (centres unmarked) [PTX released from NPPA-PTX]	2 ± 0	127.5 ± 34.17	9.53 ± 5.82	7.38 ± 0.817	93,700 ± 26,400 mL kg^−1	837 ± 264	695 ± 99.6	99.0 ± 29.2	MRT compared to that of PTX from Taxol ([1]; i.v.): 4 fold; Vz_obs (apparent distribution volume) ([1]; i.v. NPPA-PTX NPs 6.04 mg kg^−1 or Taxol 5.00 mg kg^−1, mean ± SEM, n = 3, listed as released PTX from NPPA-PTX): 93,700 mL kg^−1; AUC0–24h in plasma compared with PTX from Taxol ([2]; plasma): lower values (about three tenths); AUC0–24h in tumor compared with PTX from Taxol ([2]; tumor): equivalent values
CC(=O)OC1C(=O)C2(C)C(O)CC3OCC3(OC(C)=O)C2C(OC(=O)c2ccccc2)C2(O)CC(OC(=O)C(O)C(NC(=O)c3ccccc3)c3ccccc3)C(C)=C1C2(C)C (centres unmarked) [PTX from Taxol]	2 ± 0	19.5 ± 6.63	5.86 ± 1.24	2.50 ± 0.545	10,300 mL kg^−1 and 10,300 ± 5480 mL kg^−1	4560 ± 1310	4480 ± 1310	8600 ± 2500	–
CC(=O)O[C@H]1C(=O)[C@@]2(C)[C@H]([C@H](OC(=O)c3ccccc3)[C@]3(O)C[C@H](OC(=O)[C@H](O)[C@@H](NC(=O)c4ccccc4)c4ccccc4)C(C)=C1C3(C)C)[C@]1(OC(C)=O)CO[C@@H]1C[C@@H]2O [PTX, paclitaxel]	–	–	–	–	–	–	–	–	IC50 (HCT116 cells): 300 ± 20 nM; IC50 (MDA-MB-231 cells): 63 ± 3.3 nM
CC(=O)OC1C(=O)C2(C)C(O)CC3OCC3(OC(C)=O)C2C(OC(=O)c2ccccc2)C2(O)CC(OC(=O)C(OC(=O)CCc3ccccc3[N+](=O)[O-])C(NC(=O)c3ccccc3)c3ccccc3)C(C)=C1C2(C)C (centres unmarked) [NPPA-PTX, 3-(2-nitrophenyl) propionic acid-paclitaxel]	2 ± 0	33.17 ± 16.4	7.45 ± 0.915	2.91 ± 0.280	20,700 mL kg^−1 and 20,700 ± 9320 mL kg^−1	3930 ± 2710	3810 ± 2640	4580 ± 2140	MRTINF_obs (mean residence time) [1, 3]: 3.90 ± 0.656 h; AUC tissue/plasma ([2]; Heart): 0.65; AUC tissue/plasma ([2]; Kidney): 0.79; AUC tissue/plasma ([2]; Liver): 3.17; AUC tissue/plasma ([2]; Lung): 0.55; AUC tissue/plasma ([2]; Spleen): 0.35; AUC tissue/plasma ([2]; plasma): 1.00; AUC tissue/plasma ([2]; tumor): 0.45

— paper PMC8079060 (Drug Delivery, 2021)
